Assay [1] deals with T1, PyAeADHII (Pyrobaculum aerophilum, UniProt Q8ZUP0).
T1 construct: gene PAE2687; structural zinc only (Cys-91, Cys-94, Cys-97, Cys-105); Asn-39, Ser-61, Ile-147, Arg-88 in active site
Put plainly: X-ray co-crystal structure, […] Å. It is filed as binding. To be noted: modelled as NADPH, NADP+ not excluded; pH 7.5.

For assay [2], the target named is T1, PyAeADHII. The experiment in a line: spectrophotometric NADPH oxidation at […] nm. To be noted: 0.3 mM NADPH, 50 mM sodium phosphate pH 7.5, 37 °C; reduction to alpha-tetralol. It counts as biochemical.

T1 sequence (Q8ZUP0 entry or part of it): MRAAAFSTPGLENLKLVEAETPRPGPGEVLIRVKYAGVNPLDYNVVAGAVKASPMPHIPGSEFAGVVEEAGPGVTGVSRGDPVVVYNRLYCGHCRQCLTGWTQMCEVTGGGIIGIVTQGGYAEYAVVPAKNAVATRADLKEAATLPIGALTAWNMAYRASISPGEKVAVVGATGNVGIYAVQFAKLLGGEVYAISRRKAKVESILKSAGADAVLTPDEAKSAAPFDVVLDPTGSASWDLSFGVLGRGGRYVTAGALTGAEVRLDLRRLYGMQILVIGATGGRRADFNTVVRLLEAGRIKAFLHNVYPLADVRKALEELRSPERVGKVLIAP

Take `NC(=O)C1=CN([C@@H]2O[C@H](COP(=O)(O)OP(=O)(O)OC[C@H]3O[C@@H](n4cnc5c(N)ncnc54)[C@H](OP(=O)(O)O)[C@@H]3O)[C@@H](O)[C@H]2O)C=CC1` [NADPH]: on PyAeADHII [1], the “X-ray co-crystal structure, 2.35 Å” value is listed as “we determined the co-crystal structure of PyAeADHII monomer bound to NADPH”. As for `O=C1CCCc2ccccc21` [α-tetralone], on PyAeADHII [2], the “spectrophotometric NADPH oxidation at 340 nm” value is “The standard assay for the reduction reaction of α-tetralone”.

The values above are taken from paper PMC3673990, “Physicochemical Characterization of a Thermostable Alcohol Dehydrogenase from Pyrobaculum aerophilum” (PLoS ONE, 2013).
